Experimental data: publication PMC4684281, “Antitumor Effects and Mechanism of Novel Emodin Rhamnoside Derivatives against Human Cancer Cells In Vitro” (PLoS ONE, 2015)
≈ marks a conversion by molar mass, not a printed value.

Tests used:
[1] = tested on: OVCAR-3 cells; assay: MTT cell viability assay, OVCAR-3; assay type: cell-based, Human; conditions: Homo sapiens, OVCAR-3; MTT, 72 hours; read-out: IC50 values, OVCAR-3
Method: (§1) The viability of cancer cells was evaluated by MTT assay. Briefly, cells were inoculated in 96-well culture plates at the density of 1×10^4/well with complete medium containing 10% fetal calf serum in a final volume of 0.2 mL. Cells were incubated at 37°C for at least 24 hours to allow optimal attachment. When the cells reached 60% confluence, they were treated with Cisplatin, HCPT and emodin rhamnopyranosides derivatives in various concentrations, and incubated in a humidity-controlled 5%CO2 incubator at 37°C for 72 hours. Medium were exchanged once every 24 hours. Cell control group and blank group were set up in the same manner, with each group having six parallel wells. Cell survival was assessed by directly adding 22 μL of 5mg/mL MTT to 0.2 mL medium. After three hours, the formazan precipitate was dissolved in 200μL isopropanol per well, and completely mixed under room temperature. Afterwards, the optical density of each well was detected at 570 nm wavelength by iMark microplate reader (Bio-rad,USA). This experiment was repeated at least three times.

[2] = tested on: HeLa cells; assay: MTT cell viability assay, HeLa; assay type: cell-based, Human; conditions: Homo sapiens, HeLa; MTT, 72 hours; read-out: IC50 values, HeLa
Method: as §1

[3] = tested on: HepG2 cells; assay: MTT cell viability assay, HepG2; assay type: cell-based, Human; conditions: Homo sapiens, HepG2; MTT, 72 hours; read-out: IC50 values, HepG2
Method: as §1

[4] = tested on: MDCK cells; assay: MTT cell viability assay, MDCK; assay type: cell-based, Canine; conditions: Canis lupus familiaris, 72 hours
Method: as §1

[5] = tested on: A549 cells; assay: MTT cell viability assay, A549; assay type: cell-based, Human; conditions: Homo sapiens, A549; MTT, 72 hours; read-out: IC50 values, A549
Method: as §1

[6] = Solubility (structure-activity remark); assay type: physicochemical; conditions: one rhamnose introduced into emodin
[7] = tested on: HepG2 cells; assay: Fluorescence microscopy assay (Hoechst 33342); assay type: cell-based, Human
Method: HepG2 cells were inoculated in duplicate at 3×10^5/well density in 6-well plate, and allowed to attach at 37°C for 24 hours. Afterwards, cells were treated with 10 μM HCPT, 25 μM emodin and specific concentration EM-d-Rha (0.1μM, 0.5μM, 2.5μM), respectively. Cell control group was set in the same way. […] Medium were exchanged as described previously. In the end, all medium were discarded and cells were digested with 2mL 0.25% Trypsin-EDTA solution at 37°C for 5 min. After cells were harvested, cells were washed with PBS twice followed by centrifuging at 300×g for 5 minutes. Finally, cells were re-suspended in 100μL cold PBS after the supernatant was discarded. Cells were cultured in the dark for 10 minutes at room temperature after adding 100μL 1mg/mL Hoechst 33342 staining solution. Cells were harvested again as described previously to discard the staining solution. Wash the harvested cells twice with PBS before applying to the clean glass slides. The morphological changes of cells nuclei were observed and photographed under the fluorescence microscope (Olympus, Japan) at 350 nm excitation wavelength. The experiment was repeated three times.

IC50 [1] [µg/mL] | IC50 [2] [µg/mL] | IC50 [3] [µg/mL] | IC50 [5] [µg/mL] | Solubility of derivative relative to emodin [6] | Compound | IC50 [4] [µg/mL] | Nuclear morphology, Hoechst 33342 ([7]; HepG2, 2.5μM, 48h) | Nuclear morphology, Hoechst 33342 ([7]; HepG2, 25μM)
> 20 | 5.34 (≈ 10.7 µM) | 1.32 (≈ 2.64 µM) | 3.16 (≈ 6.31 µM) |  | CC(=O)O[C@@H]1[C@@H](OC(C)=O)[C@@H](O)[C@H](Oc2cc(O)c3c(c2)C(=O)c2cc(C)cc(O)c2C3=O)O[C@H]1C [S-5] | 14.8 (≈ 29.6 µM) |  | 
> 20 | > 20 | > 20 | > 20 | improved | CC(=O)O[C@@H]1[C@@H](O)[C@H](C)O[C@@H](Oc2cc(O)c3c(c2)C(=O)c2cc(C)cc(O)c2C3=O)[C@@H]1OC(C)=O [S-3] | > 20 |  | 
> 20 | > 20 | > 20 | 9.27 (≈ 18.5 µM) |  | CC(=O)O[C@@H]1[C@@H](O)[C@@H](OC(C)=O)[C@H](Oc2cc(O)c3c(c2)C(=O)c2cc(C)cc(O)c2C3=O)O[C@H]1C [S-4] | > 20 |  | 

Further lines, the compound ahead of its results:

Compound | IC50 [1] [µg/mL] | IC50 [2] [µg/mL] | IC50 [3] [µg/mL] | IC50 [5] [µg/mL] | Solubility of derivative relative to emodin [6] | IC50 [4] [µg/mL] | Nuclear morphology, Hoechst 33342 ([7]; HepG2, 2.5μM, 48h) | Nuclear morphology, Hoechst 33342 ([7]; HepG2, 25μM)
CC(=O)O[C@@H]1[C@@H](O)[C@@H](O)[C@H](Oc2cc(O)c3c(c2)C(=O)c2cc(C)cc(O)c2C3=O)O[C@H]1C [S-6] | > 20 | > 20 | > 20 | 2.25 (≈ 4.91 µM) |  | 21.1 (≈ 46 µM) |  | 
COc1cc(C)cc2c1C(=O)c1c(OC)cc(O[C@@H]3O[C@@H](C)[C@H](O)[C@@H](OC(C)=O)[C@H]3OC(C)=O)cc1C2=O [S-9] | 9.72 (≈ 18.4 µM) | 4.93 (≈ 9.33 µM) | 4.43 (≈ 8.38 µM) | 3.63 (≈ 6.87 µM) |  | 1.39 (≈ 2.63 µM) |  | 
CC[C@@]1(O)C(=O)OCc2c1cc1n(c2=O)Cc2cc3cc(O)ccc3nc2-1 [HCPT] |  |  |  |  |  |  | typical apoptotic nuclear morphology | 
Cc1cc(O)c2c(c1)C(=O)c1cc(O[C@@H]3O[C@@H](C)[C@H](O)[C@@H](O)[C@H]3O)cc(O)c1C2=O [S-2] | > 20 | > 20 | > 20 | > 20 |  | > 20 |  | 
Cc1cc(O)c2c(c1)C(=O)c1cc(O)cc(O)c1C2=O [S-1, 3-methyl-1,6,8-trihydroxyanthraquinone, reference compound] | 25.8 (≈ 95.5 µM) | 12.1 (≈ 44.9 µM) | 12.8 (≈ 47.3 µM) | 19.5 (≈ 72.3 µM) |  | 5.81 (≈ 21.5 µM) |  | displayed apoptotic morphological changes
